Reference: US10265307B2, “Thiazolecarboxamides and pyridinecarboxamide compounds useful as Pim kinase inhibitors” (Incyte Corporation, priority 2013, dated 2019)
pIC50: −log10 of the molar value. Where two headings read alike, the source gives them in different places.

Legend:
Format in all cases: biochemical
Pim-3 = Pim-3 (Homo sapiens (Human), UniProt Q86V86); assay: Pim-3 kinase assay; conditions: 1 mM ATP; read-out: Pim3 IC50
Protocol: Pim-1 and Pim-3 kinase assays-20 μL reactions were run in white 384 well polystyrene plates dotted with 0.8 μL compound/DMSO in the assay buffer (50 mM Tris, pH 7.5, 0.01% Tween-20, 5 mM MgCl2, 0.01% BSA, 5 mM DTT), containing 0.05 μM Biotin-labeled BAD peptide substrate (AnaSpec 62269), 1 mM ATP, and […] (Pim-1, Invitrogen PV3503) or […] (Pim-3, Millipore 14-738) enzyme for 1 h at 25° C. Reactions were stopped by addition of 10 μL STOP Buffer (150 mM Tris, pH=7.5, 150 mM NaCl, 75 mM EDTA, 0.01% Tween-20, 0.3% BSA) supplemented with Phospho-Bad (Ser112) Antibody (Cell Signaling 9291) diluted 666-fold, and Streptavidin donor beads (PerkinElmer 6760002) along with Protein-A acceptor beads (PerkinElmer 6760137) at 15 μg/mL each. Supplementation of the STOP buffer with beads and stopping the reactions were done under reduced light. Prior to the stopping reactions STOP buffer with beads was pre-incubated for 1 h in the dark at room temperature. After stopping the reactions, plates were incubated for 1 h in the dark at room temperature before reading on a PHERAstar FS plate reader (BMG Labtech) under reduced light.

Pim-2 = Pim-2 (Homo sapiens (Human), UniProt Q9P1W9); assay: Pim-2 kinase assay
Chain of Pim-2 (Q9P1W9 whole entry): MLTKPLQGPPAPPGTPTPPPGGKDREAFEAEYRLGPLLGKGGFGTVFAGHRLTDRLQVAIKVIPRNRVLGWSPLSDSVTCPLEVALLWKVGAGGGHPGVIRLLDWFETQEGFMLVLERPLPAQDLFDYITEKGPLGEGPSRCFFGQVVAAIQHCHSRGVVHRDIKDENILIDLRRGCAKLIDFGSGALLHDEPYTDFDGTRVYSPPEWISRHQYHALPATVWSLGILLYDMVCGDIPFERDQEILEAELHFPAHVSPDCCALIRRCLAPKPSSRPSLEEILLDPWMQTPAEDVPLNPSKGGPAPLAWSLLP
Protocol: Pim-2 kinase assay-20 μL reactions were run in white 384 well polystyrene plates dotted with 0.8 μL compound/DMSO in the assay buffer (50 mM Tris, pH 7.5, 0.01% Tween-20, 5 mM MgCl2, 0.01% BSA, 5 mM DTT), containing 0.05 μM Fluorescein-labeled CREBtide peptide substrate (Invitrogen PV3508), 1 mM ATP, and 1 nM enzyme (Invitrogen PV3649) for 2 h at 25° C. Reactions were stopped by addition of 10 μL TR-FRET Dilution Buffer (Invitrogen PV3574) with 30 mM EDTA and 1.5 nM LanthaScreen Tb-CREB pSer133 antibody (Invitrogen PV3566). After 30 min. incubation at room temperature, plates were read on a PHERAstar FS plate reader (BMG Labtech).
Although the above in vitro assays are conducted at 1 mM ATP compounds can also be evaluated for potency and in vitro activity against PIM targets utilizing Km conditions, where the concentration of ATP is set to the Km value and the assay is more sensitive to PIM inhibition activity.

Pim-1 = Pim-1 (Homo sapiens (Human), UniProt P11309); assay: Pim-1 kinase assay; conditions: 1 mM ATP; read-out: Pim1 IC50
Chain of Pim-1 (P11309 whole entry): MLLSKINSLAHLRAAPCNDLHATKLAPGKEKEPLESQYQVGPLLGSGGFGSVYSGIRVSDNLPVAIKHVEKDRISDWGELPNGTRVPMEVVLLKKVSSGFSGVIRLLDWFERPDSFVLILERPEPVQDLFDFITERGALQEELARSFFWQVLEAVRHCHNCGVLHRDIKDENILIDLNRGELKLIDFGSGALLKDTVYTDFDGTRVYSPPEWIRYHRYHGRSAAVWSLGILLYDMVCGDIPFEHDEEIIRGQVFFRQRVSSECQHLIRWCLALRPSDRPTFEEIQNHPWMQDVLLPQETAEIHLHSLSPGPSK
Protocol: Supplementation of the STOP buffer with beads and stopping the reactions were done under reduced light. Prior to the stopping reactions STOP buffer with beads was pre-incubated for 1 h in the dark at room temperature. After stopping the reactions, plates were incubated for 1 h in the dark at room temperature before reading on a PHERAstar FS plate reader (BMG Labtech) under reduced light.

SMILES | pIC50 (Pim-3) | pIC50 (Pim-2; 1 mM ATP, read-out: Pim2 IC50) | pIC50 (Pim-1) | pIC50 (Pim-2; Km ATP concentration rather than 1 mM, read-out: Pim2 IC50 at Km ATP concentration)
C[C@H]1CN(c2c(NC(=O)c3ccc(F)c(-c4c(F)cccc4F)n3)cnc3c2CCC3O)C[C@@H](N)[C@@H]1O (mixture of isomers) [Example 37, N-{4-[(3R,4R,5S)-3-Amino-4-hydroxy-5-methylpiperidin-1-yl]-7-hydroxy-6,7-dihydro-5H-cyclopenta[b]pyridin-3-yl}-6-(2,6-difluorophenyl)-5-fluoropyridine-2-carboxamide] | ≥ 7.00 | ≥ 7.00 | ≥ 7.00 | –
Nc1sc(-c2c(F)cccc2F)nc1C(=O)Nc1cnc2c(c1N1CCC[C@H](N)C1)CCC2O (single isomer, unassigned) [15 (Diastereoisomer 1)] | ≥ 7.00 | ≥ 7.00 | ≥ 7.00 | –
Nc1sc(-c2c(F)cccc2F)nc1C(=O)Nc1cnc2c(c1N1CCC[C@H](N)C1)CCC2O (single isomer, unassigned) [15 (Diastereoisomer 2)] | ≥ 7.00 | ≥ 7.00 | ≥ 7.00 | –
N[C@H]1CCCN(c2c(NC(=O)c3csc(-c4c(F)cccc4F)n3)cnc3c2CCC3O)C1 (single isomer, unassigned) [16 (Diastereoisomer 1)] | ≥ 7.00 | < 5.70 | ≥ 7.00 | –
N[C@H]1CCCN(c2c(NC(=O)c3csc(-c4c(F)cccc4F)n3)cnc3c2CCC3O)C1 (single isomer, unassigned) [16 (Diastereoisomer 2)] | ≥ 7.00 | < 5.70 | ≥ 7.00 | –
N#CC1CCc2c1ncc(NC(=O)c1nc(-c3c(F)cccc3F)sc1N)c2N1CCC[C@H](N)C1 (single isomer, unassigned) [18 (Diastereoisomer 1)] | ≥ 7.00 | 6.00 to 7.00 | ≥ 7.00 | –
N#CC1CCc2c1ncc(NC(=O)c1nc(-c3c(F)cccc3F)sc1N)c2N1CCC[C@H](N)C1 (single isomer, unassigned) [18 (Diastereoisomer 2)] | ≥ 7.00 | 6.00 to 7.00 | ≥ 7.00 | –
CC1(O)CCc2c1ncc(NC(=O)c1nc(-c3c(F)cccc3F)sc1N)c2N1CCC[C@H](N)C1 (single isomer, unassigned) [19 (Diastereoisomer 1)] | 6.00 to 7.00 | < 5.70 | ≥ 7.00 | –
CC1(O)CCc2c1ncc(NC(=O)c1nc(-c3c(F)cccc3F)sc1N)c2N1CCC[C@H](N)C1 (single isomer, unassigned) [19 (Diastereoisomer 2)] | ≥ 7.00 | 6.00 to 7.00 | ≥ 7.00 | –
N[C@H]1CCCN(c2c(NC(=O)c3ccc(F)c(-c4c(F)cccc4F)n3)cnc3c2CCC3O)C1 (single isomer, unassigned) [22 (Diastereoisomer 1)] | ≥ 7.00 | 6.00 to 7.00 | ≥ 7.00 | –
N[C@H]1CCCN(c2c(NC(=O)c3ccc(F)c(-c4c(F)cccc4F)n3)cnc3c2CCC3O)C1 (single isomer, unassigned) [22 (Diastereoisomer 2)] | ≥ 7.00 | ≥ 7.00 | ≥ 7.00 | –
Nc1cc(F)c(-c2c(F)cccc2F)nc1C(=O)Nc1cnc2c(c1N1CCC[C@H](N)C1)CCC2O (single isomer, unassigned) [23 (Diastereoisomer 1)] | ≥ 7.00 | ≥ 7.00 | ≥ 7.00 | –
Nc1cc(F)c(-c2c(F)cccc2F)nc1C(=O)Nc1cnc2c(c1N1CCC[C@H](N)C1)CCC2O (single isomer, unassigned) [23 (Diastereoisomer 2)] | ≥ 7.00 | ≥ 7.00 | ≥ 7.00 | –
C[C@H]1CN(c2c(NC(=O)c3ccc(F)c(-c4c(F)cccc4F)n3)cnc3c2CCC3O)C[C@@H](N)[C@@H]1O (single isomer, unassigned) [37 (Diastereoisomer 1)] | ≥ 7.00 | ≥ 7.00 | ≥ 7.00 | –
C[C@H]1CN(c2c(NC(=O)c3ccc(F)c(-c4c(F)cccc4F)n3)cnc3c2CCC3O)C[C@@H](N)[C@@H]1O (single isomer, unassigned) [37 (Diastereoisomer 2)] | ≥ 7.00 | ≥ 7.00 | ≥ 7.00 | –
Nc1sc(-c2c(F)cccc2F)nc1C(=O)Nc1cnc2c(c1N1C[C@@H](N)C[C@@H](C(F)(F)F)C1)CCC2O (single isomer, unassigned) [44 (Diastereoisomer 1)] | ≥ 7.00 | ≥ 7.00 | ≥ 7.00 | –

SMILES | pIC50 (Pim-3) | pIC50 (Pim-2; 1 mM ATP, read-out: Pim2 IC50) | pIC50 (Pim-1) | pIC50 (Pim-2; Km ATP concentration rather than 1 mM, read-out: Pim2 IC50 at Km ATP concentration)
Nc1sc(-c2c(F)cccc2F)nc1C(=O)Nc1cnc2c(c1N1C[C@@H](N)C[C@@H](C(F)(F)F)C1)CCC2O (single isomer, unassigned) [44 (Diastereoisomer 2)] | ≥ 7.00 | ≥ 7.00 | ≥ 7.00 | –
C[C@@H]1C[C@H](N)CN(c2c(NC(=O)c3ccc(F)c(-c4c(F)cccc4F)n3)cnc3c2CCC3O)C1 (single isomer, unassigned) [45 (Diastereoisomer 1)] | ≥ 7.00 | ≥ 7.00 | ≥ 7.00 | –
C[C@@H]1C[C@H](N)CN(c2c(NC(=O)c3ccc(F)c(-c4c(F)cccc4F)n3)cnc3c2CCC3O)C1 (single isomer, unassigned) [45 (Diastereoisomer 2)] | ≥ 7.00 | ≥ 7.00 | ≥ 7.00 | –
C[C@@H]1C[C@H](N)CN(c2c(NC(=O)c3nc(-c4c(F)cccc4F)c(F)cc3N)cnc3c2CCC3O)C1 (single isomer, unassigned) [46 (Diastereoisomer 1)] | ≥ 7.00 | ≥ 7.00 | ≥ 7.00 | –
C[C@@H]1C[C@H](N)CN(c2c(NC(=O)c3nc(-c4c(F)cccc4F)c(F)cc3N)cnc3c2CCC3O)C1 (single isomer, unassigned) [46 (Diastereoisomer 2)] | ≥ 7.00 | ≥ 7.00 | ≥ 7.00 | –
C[C@@H]1C[C@H](N)CN(c2c(NC(=O)c3nc(-c4c(F)cccc4F)sc3N)cnc3c2CCC3O)C1 (single isomer, unassigned) [47 (Diastereoisomer 1)] | ≥ 7.00 | ≥ 7.00 | ≥ 7.00 | –
C[C@@H]1C[C@H](N)CN(c2c(NC(=O)c3nc(-c4c(F)cccc4F)sc3N)cnc3c2CCC3O)C1 (single isomer, unassigned) [47 (Diastereoisomer 2)] | ≥ 7.00 | ≥ 7.00 | ≥ 7.00 | –
C[C@H]1CN(c2c(NC(=O)c3nc(-c4c(F)cccc4F)c(F)cc3N)cnc3c2CCC3O)C[C@@H](N)[C@@H]1O (single isomer, unassigned) [48 (Diastereoisomer 1)] | ≥ 7.00 | 6.00 to 7.00 | ≥ 7.00 | –
C[C@H]1CN(c2c(NC(=O)c3nc(-c4c(F)cccc4F)c(F)cc3N)cnc3c2CCC3O)C[C@@H](N)[C@@H]1O (single isomer, unassigned) [48 (Diastereoisomer 2)] | ≥ 7.00 | ≥ 7.00 | ≥ 7.00 | –
C[C@H]1CN(c2c(NC(=O)c3nc(-c4c(F)cccc4F)sc3N)cnc3c2CCC3O)C[C@@H](N)[C@@H]1O (single isomer, unassigned) [49 (Diastereoisomer 1)] | ≥ 7.00 | ≥ 7.00 | ≥ 7.00 | –
C[C@H]1CN(c2c(NC(=O)c3nc(-c4c(F)cccc4F)sc3N)cnc3c2CCC3O)C[C@@H](N)[C@@H]1O (single isomer, unassigned) [49 (Diastereoisomer 2)] | ≥ 7.00 | ≥ 7.00 | ≥ 7.00 | –
CCOc1cc(F)c(-c2nc(C(=O)Nc3cnc4c(c3N3C[C@@H](N)[C@H](O)[C@@H](C)C3)CCC4O)ccc2F)c(F)c1 (single isomer, unassigned) [51 (Diastereoisomer 1)] | ≥ 7.00 | ≥ 7.00 | ≥ 7.00 | –
CCOc1cc(F)c(-c2nc(C(=O)Nc3cnc4c(c3N3C[C@@H](N)[C@H](O)[C@@H](C)C3)CCC4O)ccc2F)c(F)c1 (single isomer, unassigned) [51 (Diastereoisomer 2)] | ≥ 7.00 | ≥ 7.00 | ≥ 7.00 | –
COc1ccc(F)c(-c2nc(C(=O)Nc3cnc4c(c3N3CCC[C@H](N)C3)CCC4O)c(N)s2)c1F (single isomer, unassigned) [53 (Diastereoisomer 1)] | ≥ 7.00 | ≥ 7.00 | ≥ 7.00 | –
N[C@H]1CCCN(c2c(NC(=O)c3csc(-c4c(F)cccc4F)n3)cnc3[nH]ncc23)C1 [compound 35] | – | – | – | 5.00 to 6.00
